Activity calls are given as the source filed them. No cut-off for these calls is given here.
Experiments:
[1] = test system: MDA-MB-231; experiment: Induction of cell cycle arrest in human MDA-MB-231 cells assessed as accumulation of cells at G0/G1 phase at 2 uM incubated for 24 hrs by propidium iodide staining based flow cytometry analysis (reference value: 66.35%); format: functional
[2] = test system: MDA-MB-231; experiment: Induction of cell cycle arrest in human MDA-MB-231 cells assessed as upregulation of p21 accumulation at 1 to 4 uM measured after 24 hrs by Western blot analysis; format: functional, cell-based; details: dose 1-4 µM
[3] = Toxicity in BALB/c mouse xenografted with human MDA-MB-231 cells assessed as effect on liver at 5 mg/kg, ip administered every other day for 20 days and measured every 4 days; format: organism-based; details: in vivo, 480 h, time 20 day
[4] = test system: MDA-MB-231; experiment: Induction of cell cycle arrest in human MDA-MB-231 cells assessed as accumulation of cells at S phase at 2 uM incubated for 24 hrs by propidium iodide staining based flow cytometry analysis (reference value: 15.50%); format: functional
[5] = test system: KYSE-30; experiment: Cytotoxicity against human KYSE-30 cells assessed as reduction in cell viability by CCK8 assay; format: functional, cell-based
[6] = test system: MDA-MB-231; experiment: Induction of cell cycle arrest in human MDA-MB-231 cells assessed as accumulation of cells at G0/G1 phase at 1 uM incubated for 24 hrs by propidium iodide staining based flow cytometry analysis (reference value: 66.35%); format: functional
[7] = test system: MDA-MB-231; experiment: Cytotoxicity against human MDA-MB-231 cells assessed as reduction in cell viability at 0 to 20 uM by CCK-8 assay; format: functional, cell-based; details: dose 0-20 µM, time 24-72 hrs, TDE = time-dependent effect
[8] = test system: MDA-MB-231; experiment: Induction of cell cycle arrest in human MDA-MB-231 cells assessed as accumulation of cells at G2/M phase at 1 uM incubated for 24 hrs by propidium iodide staining based flow cytometry analysis (reference value: 17.58%); format: functional
[9] = test system: MDA-MB-231; experiment: Induction of apoptosis in human MDA-MB-231 cells assessed as increase in late apoptotic cells at 1 to 4 uM incubated for 24 hrs by Annexin-V FITC/PI double staining based flow cytometry analysis; format: functional, cell-based; details: dose 1-4 µM
[10] = Toxicity in BALB/c mouse xenografted with human MDA-MB-231 cells assessed as effect on heart at 5 mg/kg, ip administered every other day for 20 days and measured every 4 days; format: organism-based; details: in vivo, 480 h, time 20 day
[11] = test system: Quadruplex DNA; experiment: Stabilization of c-MYC G4 quadruplex DNA Pu22 (unknown origin) assessed as temperature at which 50% protein unfold by circular dichroism melting assay; format: nucleic-acid assay
[12] = test system: MDA-MB-231; experiment: Inhibition of colony formation in human MDA-MB-231 cells assessed as reduction in number of visible cell colonies at 0.1 to 0.4 uM measured after 14 days by crystal violet based staining analysis; format: functional; details: dose 0.1-0.4 µM, time 14.0 day
[13] = test system: MDA-MB-231; experiment: Induction of apoptosis in human MDA-MB-231 cells assessed as PARP cleavage at 1 to 4 uM incubated for 24 hrs by Western blot analysis; format: functional, cell-based; details: dose 1-4 µM
[14] = test system: MDA-MB-231; experiment: Induction of cell cycle arrest in human MDA-MB-231 cells assessed as downregulation of cyclin B expression at 1 to 4 uM incubated for 24 hrs by Western blot analysis; format: functional, cell-based; details: dose 1-4 µM
[15] = test system: HeLa; experiment: Cytotoxicity against human HeLa cells assessed as reduction in cell viability by CCK8 assay; format: functional, cell-based
[16] = Toxicity in BALB/c mouse xenografted with human MDA-MB-231 cells assessed as effect on body weight at 5 mg/kg, ip administered every other day for 20 days and measured every 4 days; format: organism-based; details: in vivo, 480 h, time 20 day
[17] = test system: A549; experiment: Cytotoxicity against human A549 cells assessed as reduction in cell viability by CCK8 assay; format: functional, cell-based
[18] = test system: MDA-MB-231; experiment: Downregulation of c-MYC expression in human MDA-MB-231 cells measured after 24 hrs by RT-PCR analysis; format: functional, cell-based; details: dose 1-4 µM
[19] = test system: MDA-MB-231; experiment: Inhibition of cell migration in human MDA-MB-231 cells assessed as reduction in migration at 1 to 4 uM measured after 24 to 48 hrs by wound healing assay; format: functional, cell-based; details: dose 1-4 µM, time 24-48 hrs
[20] = test system: dsDNA; experiment: Stabilization of duplex DNA (unknown origin) assessed as change in melting temperature by circular dichroism melting assay
[21] = test system: Quadruplex DNA; experiment: Stabilization of c-MYC G4 quadruplex DNA (unknown origin) assessed as change in temperature incubated for 2 hrs in presence of duplex DNA by FRET assay; format: nucleic-acid assay
[22] = test system: Quadruplex DNA; experiment: Stabilization of c-MYC G4 quadruplex DNA KRAS (unknown origin) assessed as shift in temperature at which 50% protein unfold by circular dichroism melting assay
[23] = test system: MDA-MB-231; experiment: Induction of cell cycle arrest in human MDA-MB-231 cells assessed as accumulation of cells at G2/M phase at 2 uM incubated for 24 hrs by propidium iodide staining based flow cytometry analysis (reference value: 17.58%); format: functional
[24] = test system: MDA-MB-231; experiment: Induction of cell cycle arrest in human MDA-MB-231 cells assessed as accumulation of cells at sub-G1 phase at 1 uM incubated for 24 hrs by propidium iodide staining based flow cytometry analysis (reference value: 0.57%); format: functional
[25] = Toxicity in BALB/c mouse xenografted with human MDA-MB-231 cells assessed as distress at 5 mg/kg, ip administered every other day for 20 days and measured every 4 days; format: organism-based; details: in vivo, 480 h, time 20 day
[26] = test system: MDA-MB-231; experiment: Induction of apoptosis in human MDA-MB-231 cells assessed as caspase-3 cleavage at 1 to 4 uM incubated for 24 hrs by Western blot analysis; format: functional, cell-based; details: dose 1-4 µM
[27] = test system: MDA-MB-231; experiment: Upregulation of phosphorylated Chk2 in human MDA-MB-231 cells at 1 to 4 uM measured after 24 hrs by Western blot analysis; format: functional, cell-based; details: dose 1-4 µM
[28] = test system: HCC1806; experiment: Cytotoxicity against human HCC1806 cells assessed as reduction in cell viability by CCK8 assay; format: functional, cell-based
[29] = test system: MDA-MB-231; experiment: Induction of cell cycle arrest in human MDA-MB-231 cells assessed as accumulation of cells at sub-G1 phase at 2 uM incubated for 24 hrs by propidium iodide staining based flow cytometry analysis (reference value: 0.57%); format: functional
[30] = test system: MDA-MB-231; experiment: Cytotoxicity against human MDA-MB-231 cells assessed as inhibition of cell growth at 0 to 20 uM incubated for 48 hrs by CCK-8 assay; format: functional, cell-based; details: MDA-MB-231, 48 h
[31] = test system: MDA-MB-231; experiment: Induction of apoptosis in human MDA-MB-231 cells assessed as increase in early apoptotic cells at 1 to 4 uM incubated for 24 hrs by Annexin-V FITC/PI double staining based flow cytometry analysis; format: functional, cell-based; details: dose 1-4 µM
[32] = Toxicity in BALB/c mouse xenografted with human MDA-MB-231 cells assessed as effect on spleen at 5 mg/kg, ip administered every other day for 20 days and measured every 4 days; format: organism-based; details: in vivo, 480 h, time 20 day
[33] = test system: MDA-MB-231; experiment: Antitumor activity against human MDA-MB-231 cells xenografted in BALB/c nude mouse assessed as reduction in tumor volume at 5 mg/kg, ip administered every other day for 20 days and measured every 4 days; format: functional, organism-based; details: time 20.0 day
[34] = test system: Quadruplex DNA; experiment: Stabilization of G4 quadruplex telomeric22 DNA (unknown origin) assessed as change in melting temperature by circular dichroism melting assay
[35] = test system: MDA-MB-231; experiment: Induction of cell cycle arrest in human MDA-MB-231 cells assessed as accumulation of cells at S phase at 4 uM incubated for 24 hrs by propidium iodide staining based flow cytometry analysis (reference value: 15.50%); format: functional

CN1CCN(c2ccc(-c3nc(-c4ccc(-c5ccc(C(F)(F)F)cc5)cc4)[nH]c3-c3ccc(N4CCN(C)CC4)cc3)cc2)CC1
Activity [1]: 76.42%
Activity [2]: Active
Activity [3]: Non-Toxic
Activity [4]: 11.56%
IC50 [5]: 1310 nM
Activity [6]: 74.71%
Activity [7]: Tde
Activity [8]: 13.49%
Activity [9]: Active
Activity [10]: Non-Toxic
T [11]: 34.6 °C
inhibition [12]: Active
Activity [13]: Active
Activity [14]: Active
IC50 [15]: 2690 nM
Activity [16]: Non-Toxic
IC50 [17]: 1260 nM
Activity [18]: Dose-Dependent Effect
inhibition [19]: Active
ΔTm [20]: 0 °C
Activity [21]: Active
ΔTm [22]: 11.2 °C
Activity [23]: 11.35%
Activity [24]: 0.66%
Activity [25]: Non-Toxic
Activity [26]: Active
Activity [27]: Active
IC50 [28]: 1490 nM
Activity [29]: 0.68%
IC50 [30]: 870 nM
Activity [31]: Active
Activity [32]: Non-Toxic
Activity [33]: Active
ΔTm [34]: 0 °C
Activity [35]: 6.09%

Reference: ChEMBL document CHEMBL5380876, “Non-fused imidazole-biphenyl analogs repress triple-negative breast cancer growth by mainly stabilizing the c-MYC G-quadruplex via a multi-site binding mode” (Bioorg Med Chem, 2023)
